# Measurements published in patent US20210186972A1, “FORMULATIONS AND METHODS FOR THE PREVENTION AND TREATMENT OF TUMOR METASTASIS AND TUMORIGENESIS” (THE UNITED STATES OF AMERICA, AS REPRESENTED BY THE …, priority 2018, published 2021).
# Columns and labels:
# PC3M-GFP-PTB cells = experiment: Cytotoxicity measured by cellular ATP (CELLTITER GLO); type: cell-based, human
# Excerpt: FIG. 1 is a graph showing the concentration-response curve against PNC prevalence in PC3M (a metastatic prostate cancer cell line)-GFP (green fluorescent protein)-PTB (polypyrimidine tract-binding protein) cells (squares, PC3M, has a PNC prevalence of 75-85% in the absence of treatment) and cytotoxicity as measured by cellular ATP (CELLTITER GLO™) (circles). Representative PTB-GFP images for cells at the indicated concentrations (arrowheads indicate PNCs) (scale bar=5 μm) are shown in the three panels above the graph. The relative signal (%) is along the y-axis and Metarrestin [log M] is along the x-axis.
# PC3M cells = experiment: Cell growth (INCUCYTE confluence), PC3M; type: cell-based, human
# Excerpt: The confluence (%) is on the y-axis and the time (in hours) is on the x-axis. The top most line is GM02153-DMSO, the second line from the top is PC3M-DMSO, the third line from the top is GM02153-metarrestin, and the bottom line is PC3M-metarrestin.
# [1] = parameters: species or system NSG PANC1 mice; conditions: NSG (Nod/IL2gamma null), mouse, in vivo, po, 10 mg/kg, 1 h
# GFP-RPL29 = experiment: Ribosome synthesis, inducible GFP-RPL29 cell line; type: cell-based; conditions: induced after exposure for 5 hours
# Method: FIG. 24 is a panel showing that metarrestin interferes with ribosomal biogenesis. An inducible RPL29-GFP-expressing cell line synthesizes RPL29-GFP when treated with tetracyclin (2nd column). When cells were treated with 1 μM metarrestin before tetracycline induction, the newly synthesized proteins accumulated in the nucleoli and nuclei (right most panels) compared to the DMSO control treated cells (2nd from right panels). Scale bars=5 μm.
# To examine whether the disruption of the nucleolar structure impacts ribosome synthesis, a cell line expressing inducible GFP-RPL29 (a ribosomal subunit) was used.
# [2] = test system: Pol I transcription (5′ETS RNA); experiment: rDNA transcription: BrU incorporation and qRT-PCR of 5′ETS; type: cell-based
# Method: To determine which steps in ribosomal biogenesis that are disrupted by metarrestin, rDNA transcription was evaluated using a BrU incorporation assay, an in situ run-on assay that detects the localization pattern of newly synthesized RNA. Cells were rinsed once in glycerol buffer (20 mM Tris-HCl pH 7.4, 5 mM MgCl2, 25% glycerol, 0.5 mM PMSF, 0.5 mM EGTA) and followed by Br—U incorporation assay protocol. The cells were co-immunolabeled with C23 (Santa Cruz Biotechnology) at a 1:100 dilution and anti-BrdU that also recognizes Br—U (Sigma) at a 1:50 dilution.
# To evaluate the impact on rDNA transcription in metarrestin-treated cells, the amounts of 5′ETS RNA were quantified. The amount of 5′ETS correlates with the amount of rDNA transcription because 5′ETS in nascent pre-rRNA transcripts is rapidly removed.
# RT-PCR: Total RNA was isolated from cells using TRIZOL reagent (Invitrogen) according to the manufacturer's instructions. cDNA was synthesized with Random Hexamer (IDT DNA Technologies) or gene-specific primers using M-MLV Reverse Transcriptase (Invitrogen 28025-013). The DNA was PCR-amplified with gene-specific primers. 5′ETS-F: […] (SEQ ID NO: 11); 5′ETS-R: GAACGACACACCACCGTTC (SEQ ID NO: 12); eEF1A1-F: […] […]
# [3] = test system: RPA194 and UBF occupancy on rDNA; experiment: Quantitative ChIP on rDNA; type: cell-based; conditions: HeLa cells
# Method: ChIP-qPCR: 2-5×10^7 cells were used for each ChIP assay according to previously described protocols. Briefly, HeLa cells with or without metarrestin treatment were crosslinked with 1% formaldehyde for 10 min at room temperature with rotation, and then crosslinking was quenched by the addition of glycine. Fixed chromatin was sonicated by Covaris and used for immunoprecipitation with the indicated antibody. Isolated DNA was analyzed by qPCR using SYBR green on CFX Connect Real-Time PCR Detection System (BioRad). The comparative cycle threshold method was applied to evaluate occupancy from replicate PCR reactions relative to the level of input. […]
# Psoralen crosslinks active accessible DNA under UV light without displacing nucleosomes or transcription factors, or changing chromatin states. […] To examine the interactions between Pol I transcription factors and rDNA, quantitative ChIP experiments were carried out using primer sets across promoter and coding regions of rDNA (FIG. 29-30E).
# eEF1A [4] = experiment: Affinity purification with biotin-conjugated metarrestin and competition; type: binding
# Excerpt: FIG. 35 is a Western blot illustrating that metarrestin effectively outcompeted recombinant eEF1A from binding to anchored biotinylated metarrestin-eEF1A complex. […] Increased eEF1A2 enhances PNCs and metastasis formation.
# eEF1A [5] = experiment: Western blot of total eEF1A; type: cell-based; conditions: 1 μM, 24 hours
structure (smiles),measurement,setting,value
N=c1c2c(-c3ccccc3)c(-c3ccccc3)n(Cc3ccccc3)c2ncn1[C@H]1CC[C@H](O)CC1 [metarrestin],Acute cytotoxicity (cellular ATP),PC3M-GFP-PTB cells,without acute cytotoxicity
same,PC3M cell growth,"PC3M cells; 0.6 μM, after 24 hours of treatment",did not affect PC3M or PANC1 cell growth
same,Cell growth in PC3M cancer cells,"PC3M cells; 1 μM, extended time, INCUCYTE",preferentially inhibited cell growth
same,Concentration in primary tumors above the IC90 of 0.75 μM,[1],more than 10 fold
same,Newly synthesized GFP-RPL29 in the cytoplasm,GFP-RPL29,largely undetected in the cytoplasm
same,Production of GFP-RPL29 and its nucleolar localization,GFP-RPL29,appeared unchanged
same,Organization of newly synthesized rRNA (BrU incorporation),[2]; five-minute incubation,altered into tight small clusters
same,5′ETS RNA (quantitative RT-PCR),[2]; vs DMSO-treated control cells,substantial reduction of 5′ETS RNA
same,UBF binding to rDNA,[3],without significant impact on UBF binding
same,RPA194 occupancy on rDNA promoter and coding regions,[3]; p<0.01,significantly reduced RPA194 occupancy
same,Binding to eEF1A (competition and proteomic analysis),eEF1A [4],metarrestin-binding protein
same,Total eEF1A protein,eEF1A [5],remained similar
